Assays:
[1] = compound: CC(=O)Nc1cccc(-n2c(=O)n(C3CC3)c(=O)c3c(Nc4ccc(I)cc4F)n(C)c(=O)c(C)c32)c1 [Trametinib]; conditions: max 1 µM
How it was run: (§1)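 In 1536-well plates, cancer cell lines in 7.5 μl DMEM/F12 or RPMI with 10% FBS spent 24 hours at 37°C and 5% CO2 and were then dosed for 72 hours with final DMSO typically 0.2%. Viability was read by CellTiter-Glo 2.0 luminescence and scaled between blank-well and DMSO-well means. The single-agent IC50 was fitted from dose responses using a logistic curve in a non-linear mixed effects model, and that logistic curve had two parameters.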

[2] = compound: C[C@@H](c1ccc2nccn2c1)n1nnc2ncc(-c3cnn(C)c3)nc21 [Savolitinib]; conditions: max 1 µM
How it was run: as §1

[3] = compound: CCc1c2c(nc3ccc(O)cc13)-c1cc3c(c(=O)n1C2)COC(=O)[C@]3(O)CC [SN-38]; conditions: max 0.3 µM
How it was run: as §1

[4] = compound: COc1cccc2c1C(=O)c1c(O)c3c(c(O)c1C2=O)C[C@@](O)(C(=O)CO)C[C@@H]3O[C@H]1C[C@H](N)[C@H](O)[C@H](C)O1 [Doxorubicin]; conditions: max 1 µM
How it was run: as §1

[5] = compound: C[C@@H]1COCCN1C2=NC(=NC(=C2)C3(CC3)[S@](=N)(=O)C)C4=C5C=CNC5=NC=C4 [AZD6738]; conditions: max 10 µM
How it was run: as §1

[6] = compound: C[C@@H](Nc1cc(F)cc(F)c1)c1cc(C(=O)N(C)C)cc2c(=O)cc(N3CCOCC3)oc12 [AZD8186]; conditions: max 3 µM
How it was run: as §1

[7] = compound: COc1cccc(OCCCN)c1-c1cc(Nc2cnc(C#N)cn2)n[nH]1 [Prexasertib]; conditions: max 1 µM
How it was run: as §1

[8] = compound: CC1(C)CCC(CN2CCN(c3ccc(C(=O)NS(=O)(=O)c4ccc(NCC5CCOCC5)c([N+](=O)[O-])c4)c(Oc4cnc5[nH]ccc5c4)c3)CC2)=C(c2ccc(Cl)cc2)C1 [Venetoclax]; conditions: max 1 µM
How it was run: as §1

[9] = compound: C=CCn1c(=O)c2cnc(Nc3ccc(N4CCN(C)CC4)cc3)nc2n1-c1cccc(C(C)(C)O)n1 [AZD1775]
How it was run: as §1

[10] = compound: CC1=CN2[C@@H](C1)C=NC3=CC(=C(C=C3C2=O)OC)OCCCCCOC4=C(C=C5C(=C4)N=C[C@@H]6CC(=CN6C5=O)C)OC [SG3199]; conditions: max 0.001 µM
How it was run: as §1

[11] = compound: Cc1c2c(nn1C)CSCc1cc(n(C)n1)CSc1cc(c3ccccc3c1)OCCCc1c(C(=O)O)n(C)c3c-2c(Cl)ccc13 [AZD5991]; conditions: max 1 µM
How it was run: as §1

[12] = compound: Cn1cnc2c(F)c(Nc3ccc(Br)cc3Cl)c(C(=O)NOCCO)cc21 [Selumetinib]
How it was run: as §1

[13] = compound: CC(C)n1c(=O)n(C)c2cnc3cc(F)c(-c4ccc(OCCCN5CCCCC5)nc4)cc3c21 [AZD1390]; conditions: max 0.3 µM
How it was run: as §1

[14] = compound: COc1cc2ncnc(Nc3ccc(F)c(Cl)c3)c2cc1OCCCN1CCOCC1 [Gefitinib]; conditions: max 10 µM
How it was run: as §1

[15] = compound: Cc1nc(-c2cn3c(n2)-c2ccc(-c4cnn(C(C)(C)C(N)=O)c4)cc2OCC3)n(C(C)C)n1 [Taselisib]; conditions: max 10 µM
How it was run: as §1

[16] = compound: CS(=O)(=O)CCNCc1ccc(-c2ccc3ncnc(Nc4ccc(OCc5cccc(F)c5)c(Cl)c4)c3c2)o1 [Lapatinib]; conditions: max 10 µM
How it was run: as §1

[17] = compound: CCN(CCO)CCCOc1ccc2c(Nc3cc(CC(=O)Nc4cccc(F)c4)[nH]n3)ncnc2c1 [AZD2811]; conditions: max 1 µM
How it was run: as §1

[18] = compound: CC1=C(C(=CC=C1)Cl)NC(=O)C2=CN=C(S2)NC3=CC(=NC(=N3)C)N4CCN(CC4)CCO [Dasatinib]; conditions: max 2 µM
How it was run: as §1

[19] = compound: CN(CC[C@H](CSC1=CC=CC=C1)NC2=C(C=C(C=C2)S(=O)(=O)NC(=O)C3=CC=C(C=C3)N4CCC(CC4)[C@H](C5=CC=CC=C5C6=CC=C(C=C6)Cl)O)S(=O)(=O)C(F)(F)F)CCO [AZD4320]; conditions: max 1 µM
How it was run: as §1

[20] = compound: CC(=O)c1c(C)c2cnc(Nc3ccc(N4CCNCC4)cn3)nc2n(C2CCCC2)c1=O [Palbociclib]; conditions: max 10 µM
How it was run: as §1

[21] = compound: C1CN(CCC1(C(=O)N[C@@H](CCO)C2=CC=C(C=C2)Cl)N)C3=NC=NC4=C3C=CN4 [Capivasertib]
How it was run: as §1

[22] = compound: O=C(c1cc(Cc2n[nH]c(=O)c3ccccc23)ccc1F)N1CCN(C(=O)C2CC2)CC1 [Olaparib]; conditions: max 10 µM
How it was run: as §1

[23] = compound: C[C@@H](Oc1cc(-c2cnn(C3CCNCC3)c2)cnc1N)c1c(Cl)ccc(F)c1Cl [Crizotinib]; conditions: max 10 µM
How it was run: as §1

[24] = compound: COc1nnc2ccc(N3CCC(c4ccc(OCCN5CCN(C)C(=O)[C@H]5C)cc4)CC3)nn12 [AZD5153]; conditions: max 1 µM
How it was run: as §1

[25] = compound: CN(C)CCCOc1ccc(-c2ccc3ncc4c(c3c2)n(C2CCOCC2)c(=O)n4C)cn1 [AZD0156]
How it was run: as §1

[26] = compound: Cc1cc2ncnn2cc1Nc1ncc2c(n1)n(C1CCOCC1)c(=O)n2C [AZD7648]; conditions: max 10 µM
How it was run: as §1

[27] = compound: COc1cc(Nc2ncc3c(n2)-c2ccc(Cl)cc2C(c2c(F)cccc2OC)=NC3)ccc1C(=O)O [Alisertib]; conditions: max 10 µM
How it was run: as §1

Cell Line | IC50, cell viability 72 h [1] [nM] | IC50, cell viability 72 h [2] [nM] | IC50, cell viability 72 h [3] [nM] | IC50, cell viability 72 h [4] [nM] | IC50, cell viability 72 h [5] [nM] | IC50, cell viability 72 h [6] [nM] | IC50, cell viability 72 h [7] [nM] | IC50, cell viability 72 h [8] [nM] | IC50, cell viability 72 h ([9]; max 3 µM) [nM] | IC50, cell viability 72 h [10] [nM] | IC50, cell viability 72 h [11] [nM] | IC50, cell viability 72 h ([12]; max 10 µM) [nM] | IC50, cell viability 72 h [13] [nM] | IC50, cell viability 72 h [14] [nM] | IC50, cell viability 72 h [15] [nM] | IC50, cell viability 72 h [16] [nM] | IC50, cell viability 72 h [17] [nM] | IC50, cell viability 72 h [18] [nM] | IC50, cell viability 72 h [19] [nM] | IC50, cell viability 72 h [20] [nM] | IC50, cell viability 72 h ([21]; max 10 µM) [nM] | IC50, cell viability 72 h [22] [nM] | IC50, cell viability 72 h [23] [nM] | IC50, cell viability 72 h [24] [nM] | IC50, cell viability 72 h ([25]; max 3 µM) [nM] | IC50, cell viability 72 h [26] [nM] | IC50, cell viability 72 h [27] [nM] | IC50, cell viability 72 h ([9]; max 1 µM) [nM] | IC50, cell viability 72 h ([12]; max 3 µM) [nM] | IC50, cell viability 72 h ([21]; max 3 µM) [nM] | IC50, cell viability 72 h ([25]; max 1 µM) [nM]
NCI-H1975 (Lung Adenocarcinoma) | > 1000 | > 1000 | > 300 | 497 | > 10000 | > 3000 | > 1000 | > 1000 | 1620 | > 1 | > 1000 | > 10000 | > 300 | > 10000 | 1220 | > 10000 | > 1000 | 1010 | > 1000 | > 10000 | 3840 | > 10000 | > 10000 | 359 | > 3000 | > 10000 | > 10000 | – | – | – | –
NCI-H2170 (Squamous Cell Lung Carcinoma) | > 1000 | > 1000 | 13.6 | 539 | 7670 | > 3000 | 46.8 | > 1000 | 678 | > 1 | > 1000 | > 10000 | > 300 | 1980 | 1540 | 362 | 391 | > 2000 | 665 | > 10000 | 5470 | > 10000 | 7380 | > 1000 | > 3000 | > 10000 | 1100 | – | – | – | –
RVH-421 (Melanoma) | > 1000 | – | > 300 | > 1000 | > 10000 | 3000 | > 1000 | > 1000 | – | > 1 | > 1000 | – | – | – | > 10000 | – | > 1000 | – | > 1000 | – | – | > 10000 | – | – | – | > 10000 | > 10000 | > 1000 | > 3000 | > 3000 | > 1000
TK (B-Cell Non-Hodgkin's Lymphoma) | > 1000 | > 1000 | 16.7 | > 1000 | 1020 | > 3000 | 10.8 | 46.2 | 293 | > 1 | > 1000 | > 10000 | > 300 | > 10000 | > 10000 | > 10000 | > 1000 | > 2000 | – | > 10000 | > 10000 | > 10000 | > 10000 | > 1000 | > 3000 | > 10000 | 2790 | – | – | – | –

Reference: the supplement of paper PMC11061612
